Measured values from patent US6362369B1, “Phthalic acid diamide derivatives fluorine-containing aniline compounds as starting material, agricultural and horticultural insecticides, and a method for application of the insecticides” (Nihon Nohyaku Co., Ltd., priority 1997, dated 2002).

Columns and labels:
Format in all cases: in vivo
[1] = tested on: rice leafroller (Cnaphalocrocis medinalis); experiment: Insecticidal effect on rice leafroller (Test Example 3); conditions: 500 ppm, 25° C., humidity 70%; for Insecticidal effect (Test Example 3), judged from mortality / Insecticidal effect on rice leafroller (Test Example 3), judged grade: rice lamina dip; for Insecticidal effect (Test Example 3), judged from mortality: 4 days after inoculation; for Insecticidal effect on rice leafroller (Test Example 3), judged grade: third-instar larvae; for Insecticidal effect on rice leafroller (Test Example 3), judged grade / Insecticidal effect, Test Example 3: four days after inoculation; for Insecticidal effect, Test Example 3: rice lamina immersed
Outline: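 Groups of 10 third-instar larvae, in triplicate, are placed on air-dried lamina resting on wet filter paper. Incubation runs four days at 25° C with 70% humidity before survivors and dead are tallied.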

[2] = tested on: common cutworm (Spodoptera Litura); experiment: Insecticidal effect on common cutworm (Test Example 2); conditions: 500 ppm, 25° C.; for Insecticidal effect (Test Example 2), judged from mortality / Insecticidal effect on common cutworm (Test Example 2), judged grade: cabbage leaf dip; for Insecticidal effect (Test Example 2), judged from mortality: 8 days after inoculation; for Insecticidal effect on common cutworm (Test Example 2), judged grade: second-instar larvae; for Insecticidal effect on common cutworm (Test Example 2), judged grade / Insecticidal effect, Test Example 2: eight days after inoculation; for Insecticidal effect, Test Example 2: cabbage leaf immersed
Outline: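 2nd-instar larvae on air-dried treatment, closed dish, 25° C; dead/alive counted at day 8. Mortality calculated, graded by criterion. 3 × 10 insects.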

[3] = tested on: diamondback moth (Plutella xylostella); experiment: Insecticidal effect on diamondback moth (Test Example 1); conditions: for Insecticidal effect (Test Example 1), judged from mortality / Insecticidal effect, Test Example 1: diamondback moth; for Insecticidal effect (Test Example 1), judged from mortality: judged by the criterion of Test Example 1; for Insecticidal effect on diamondback moth (Test Example 1), judged grade: mortality judged according to the criterion shown in Test Example 1
Outline: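 Chinese cabbage seedlings carrying eggs laid by released adult moths were immersed in treatment, air-dried and held at 25° C. Hatched insects were counted six days after immersion, and mortality was calculated and scored against a fixed criterion. Three replicate groups of 10 insects were used.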

[4] = third-instar larvae of rice leafroller
[5] = second-instar larvae of common cutworm
[6] = judged by the mortality criterion of Test Example 1
[7] = rice leafroller third-instar larvae
[8] = common cutworm second-instar larvae
[9] = mortality judged by criterion of Test Example 1

Row | SMILES | Insecticidal effect on rice leafroller (Test Example 3), judged grade [1] | Insecticidal effect on common cutworm (Test Example 2), judged grade [2] | Insecticidal effect on diamondback moth (Test Example 1), judged grade [3] | Insecticidal effect, Test Example 3 [1, 4] | Insecticidal effect, Test Example 2 [2, 5] | Insecticidal effect, Test Example 1 [3, 6] | other results
1 | Cc1cc(C(F)(F)C(F)(F)F)ccc1NC(=O)c1cccc(Cl)c1C(=O)NC(C)(C)C#Cc1ccc(Br)cn1 [compound 1649] | – | – | – | – | – | – | Insecticidal effect (Test Example 3), judged from mortality [1, 4]: A (100); Insecticidal effect (Test Example 2), judged from mortality [2, 5]: A (100); Insecticidal effect (Test Example 1), judged from mortality [3]: A (100)
2 | Cc1cc(Oc2ccc(C(F)(F)F)cn2)ccc1NC(=O)c1cccc(F)c1C(=O)NC(C)C [compound 523] | A (100) | A (100) | A (100) | – | – | – | –
3 | CC(C)NC(=O)c1c(I)cccc1C(=O)Nc1ccc(SCC(F)(F)F)cc1 [compound 355] | – | – | – | A (100) | C (89-80) | A (100) | –
4 | Cc1cc(C(F)(F)C(F)(F)F)ccc1NC(=O)c1cccc(Cl)c1C(=O)NC(C)(C)C(Br)CBr (racemic) [compound 1603] | – | – | – | – | – | – | Insecticidal effect (Test Example 3), judged from mortality [1, 4]: A (100); Insecticidal effect (Test Example 2), judged from mortality [2, 5]: A (100); Insecticidal effect (Test Example 1), judged from mortality [3]: A (100)
5 | Cc1cc(OC(F)(F)C(F)F)ccc1NC(=O)c1cccc(I)c1C(=O)NC(C)C [compound 390] | – | – | – | A (100) | A (100) | A (100) | –
6 | CC(C)NC(=O)c1c(Cl)cccc1C(=O)Nc1ccc(SC(F)(F)F)cc1 [compound 997] | – | – | – | – | – | – | Insecticidal effect, Test Example 3 [1, 7]: A (100); Insecticidal effect, Test Example 2 [2, 8]: A (100); Insecticidal effect, Test Example 1 [3, 9]: A (100)
7 | CCCCCCNC(=O)c1c(I)cccc1C(=O)Nc1ccc(C(F)(F)C(F)(F)F)cc1C [compound 949] | – | – | – | – | – | – | Insecticidal effect, Test Example 3 [1, 7]: A (100); Insecticidal effect, Test Example 2 [2, 8]: A (100); Insecticidal effect, Test Example 1 [3, 9]: A (100)
8 | CC(C)NC(=O)c1c(Cl)cccc1C(=O)Nc1ccc([S+]([O-])C(F)(F)F)cc1 (stereo not drawn) [compound 1001] | – | – | – | – | – | – | Insecticidal effect, Test Example 3 [1, 7]: A (100); Insecticidal effect, Test Example 2 [2, 8]: A (100); Insecticidal effect, Test Example 1 [3, 9]: A (100)
9 | Cc1c(NC(=O)c2cccc(I)c2C(=O)NC(C)C)cccc1C(F)(F)F [compound 370] | – | – | – | A (100) | A (100) | A (100) | –
10 | CC(C)(C)NC(=O)c1c(I)cccc1C(=O)Nc1cc2c(cc1Cl)OC(F)(F)C(F)(F)O2 [compound 1645] | – | – | – | – | – | – | Insecticidal effect (Test Example 3), judged from mortality [1, 4]: A (100); Insecticidal effect (Test Example 2), judged from mortality [2, 5]: A (100); Insecticidal effect (Test Example 1), judged from mortality [3]: A (100)
11 | Cc1cc(OC(F)F)ccc1NC(=O)c1cccc(I)c1C(=O)NC(C)(C)C [compound 1020] | – | – | – | – | – | – | Insecticidal effect, Test Example 3 [1, 7]: A (100); Insecticidal effect, Test Example 2 [2, 8]: A (100); Insecticidal effect, Test Example 1 [3, 9]: A (100)
12 | CC(C)NC(=O)c1cccc([N+](=O)[O-])c1C(=O)Nc1ccc(C(F)(F)C(F)(F)C(F)(F)F)cc1Cl [compound 741] | A (100) | A (100) | A (100) | – | – | – | –
13 | CCN(CC)C(=O)c1c(I)cccc1C(=O)Nc1ccc(C(O)(C(F)(F)F)C(F)(F)F)cc1 [compound 1130] | – | – | – | – | – | – | Insecticidal effect, Test Example 3 [1, 7]: A (100); Insecticidal effect, Test Example 2 [2, 8]: A (100); Insecticidal effect, Test Example 1 [3, 9]: A (100)
14 | Cc1cc(OC(F)F)ccc1NC(=O)c1cccc(F)c1C(=O)NC(C)C [compound 500] | A (100) | B (99-90) | A (100) | – | – | – | –
15 | COc1cccc(NC(=O)c2cccc([N+](=O)[O-])c2C(=O)NC(C)C)c1C [compound 687] | D (79-50) | D (79-50) | A (100) | – | – | – | –
16 | Cc1cc(Cl)ccc1NC(=O)c1ccccc1C(=O)NC(C)(C)C [compound 927] | A (100) | A (100) | A (100) | – | – | – | –

Row | SMILES | Insecticidal effect on rice leafroller (Test Example 3), judged grade [1] | Insecticidal effect on common cutworm (Test Example 2), judged grade [2] | Insecticidal effect on diamondback moth (Test Example 1), judged grade [3] | Insecticidal effect, Test Example 3 [1, 4] | Insecticidal effect, Test Example 2 [2, 5] | Insecticidal effect, Test Example 1 [3, 6] | other results
17 | Cc1cc(Cl)ccc1NC(=O)c1ccc(Cl)cc1C(=O)NC(C)C [compound 177] | – | – | – | A (100) | A (100) | A (100) | –
18 | COc1cccc(C(=O)NC(C)C)c1C(=O)Nc1cc(Cl)ccc1C [compound 770] | A (100) | A (100) | A (100) | – | – | – | –
19 | Cc1cc(C(F)(F)C(F)(F)F)ccc1NC(=O)c1cccc(I)c1C(=O)NCc1ccccc1 [compound 1400] | – | – | – | – | – | – | Insecticidal effect, Test Example 3 [1, 7]: A (100); Insecticidal effect, Test Example 2 [2, 8]: A (100); Insecticidal effect, Test Example 1 [3, 9]: A (100)
20 | Cc1cc(I)ccc1NC(=O)c1cccc(Cl)c1C(=O)NC(C)C [compound 122] | – | – | – | A (100) | A (100) | A (100) | –
21 | Cc1cc(OC(F)F)ccc1NC(=O)c1ccc2ccccc2c1C(=O)NC(C)C [compound 819] | A (100) | B (99-90) | A (100) | – | – | – | –
22 | Cc1cc(OC(F)(F)C(F)(F)Br)ccc1NC(=O)c1cccc(I)c1C(=O)NC(C)C [compound 380] | – | – | – | A (100) | A (100) | A (100) | –
23 | Cc1cc(OC(F)(F)C(F)Cl)ccc1NC(=O)c1cccc(F)c1C(=O)NC(C)C (stereo not drawn) [compound 513] | A (100) | A (100) | A (100) | – | – | – | –
24 | CC(C)NC(=O)c1c(F)cccc1C(=O)Nc1ccc(C(F)(C(F)(F)F)C(F)(F)F)cc1Cl [compound 507] | A (100) | B (99-90) | A (100) | – | – | – | –
25 | Cc1cc(OC(F)(F)F)ccc1NC(=O)c1cc(F)c(F)cc1C(=O)NC(C)C [compound 1287] | – | – | – | – | – | – | Insecticidal effect, Test Example 3 [1, 7]: A (100); Insecticidal effect, Test Example 2 [2, 8]: A (100); Insecticidal effect, Test Example 1 [3, 9]: A (100)
26 | CC(C)NC(=O)c1c(I)cccc1C(=O)Nc1ccc(OC(F)F)c(OC(F)F)c1 [compound 385] | – | – | – | A (100) | B (99-90) | A (100) | –
27 | Cc1cc(OC(F)(F)F)ccc1NC(=O)c1ccc(Cl)c(Cl)c1C(=O)NC(C)C [compound 1221] | – | – | – | – | – | – | Insecticidal effect, Test Example 3 [1, 7]: A (100); Insecticidal effect, Test Example 2 [2, 8]: A (100); Insecticidal effect, Test Example 1 [3, 9]: A (100)
28 | CC(=O)c1ccc(NC(=O)c2cccc(Cl)c2C(=O)NC(C)C)cc1 [compound 109] | – | – | – | C (89-80) | A (100) | A (100) | –
29 | CC(C)NC(=O)c1c(Cl)cccc1C(=O)Nc1ccc(Oc2ccc(C(F)(F)F)cc2Cl)cc1F [compound 903] | A (100) | A (100) | A (100) | – | – | – | –
30 | CCNC(=O)c1c(Cl)cccc1C(=O)Nc1ccc(OC(F)F)cc1C [compound 8] | – | – | – | A (100) | A (100) | A (100) | –
31 | Cc1cc(OC(F)(F)C(F)Cl)ccc1NC(=O)c1cccc(Br)c1C(=O)NC(C)C (stereo not drawn) [compound 292] | – | – | – | A (100) | A (100) | A (100) | –
